# Literature values in US20100137844A1, “Delivery devices for modulating inflammation” (Searete LLC, a limited liability corporation of the State …, priority 2008, published 2010).
# Tests used:
# [1] = 400 mg infused over one hour, single agent
# [2] = test system: proteasomal activity in cultured breast cancer cells; details: via copper binding
# Fyn = Fyn (Homo sapiens, UniProt P06241); details: at nanomolar concentrations
# Sequence of Fyn (P06241 whole entry): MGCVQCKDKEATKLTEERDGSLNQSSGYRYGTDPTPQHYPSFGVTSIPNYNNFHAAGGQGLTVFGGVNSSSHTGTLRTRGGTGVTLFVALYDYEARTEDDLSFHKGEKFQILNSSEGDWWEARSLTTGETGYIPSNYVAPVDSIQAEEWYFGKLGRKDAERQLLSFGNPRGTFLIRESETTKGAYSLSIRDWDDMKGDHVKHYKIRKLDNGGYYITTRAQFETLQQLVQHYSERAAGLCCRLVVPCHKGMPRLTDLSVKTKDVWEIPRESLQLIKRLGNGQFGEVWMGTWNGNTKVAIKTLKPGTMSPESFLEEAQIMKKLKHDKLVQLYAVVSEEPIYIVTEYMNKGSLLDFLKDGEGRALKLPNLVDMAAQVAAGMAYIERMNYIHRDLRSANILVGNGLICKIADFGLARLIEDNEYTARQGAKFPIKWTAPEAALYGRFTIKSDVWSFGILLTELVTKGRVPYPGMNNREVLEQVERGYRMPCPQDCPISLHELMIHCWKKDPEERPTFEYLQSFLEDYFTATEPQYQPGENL
structure (smiles),measurement,setting,value
"Cl.Cl.Nc1ccccc1Oc1ccc2c(N)nsc2c1 [Example M62812, 3-amino-6-(2-aminophenoxy)-1,2-benzisothiazole dihydrochloride]",prevention of lethal septic shock,mice,prevents lethal septic shock in mice
"CCN(CC)CCCC(C)Nc1ccnc2cc(Cl)ccc12.O=P(O)(O)O.O=P(O)(O)O (centres unmarked) [chloroquine phosphate, 7-chloro-4-[[4-(diethylamino)-1-methylbutyl]amino]quinoline phosphate (1:2)]",tolerability of intravenous infusion,[1],without complication
"CCN(CC)C(=S)SSC(=S)N(CC)CC [disulfiram, 1-(diethylthiocarbamoyldisulfanyl)-N,N-diethyl-methanethioamide]",proteasomal activity,[2],inhibits proteasomal activity
same,inhibition of aldehyde dehydrogenase,aldehyde dehydrogenase,inhibits aldehyde dehydrogenase without toxicity
"Cc1nc(Nc2ncc(C(=O)Nc3c(C)cccc3Cl)s2)cc(N2CCN(CCO)CC2)n1.O [dasatinib, N-(2-chloro-6-methylphenyl)-2-[[6-[4-(2-hydroxyethyl)-1-piperazinyl]-2-methyl-4-pyrimidinyl]amino]-5-thiazolecarboxamide, monohydrate]",inhibition of Fyn,Fyn,inhibits
